{"source": "patent US20260315475A1", "about": "(priority 2023, published 2026)", "key": {"[1]": {"conditions": "healthy volunteers, per label; cited from earlier work"}, "CYP3A4": {"test_system": "CYP3A4", "conditions": "in vitro, high concentrations; cited from earlier work"}, "[2]": {"conditions": "cited from earlier work"}, "[3]": {"test": "Phase I single-dose open-label pharmacokinetic study in participants with normal hepatic function and varying degrees of hepatic impairment", "type": "in vivo, human", "conditions": "for MRAUC (metabolite/parent ratio based on AUC): geometric mean (CV %); for tlast: plasma, single oral 200 mg belumosudil, fed, median", "from_the_text": "The primary objective was to assess the pharmacokinetic (PK) of belumosudil following a single oral dose of belumosudil in participants with mild, moderate, or severe hepatic impairment compared to healthy participants with normal hepatic function.\nThe secondary objectives were: to evaluate the safety and tolerability of a single oral dose of belumosudil in participants with mild, moderate, or severe hepatic impairment, and in healthy participants with normal hepatic function; to assess the PK of the belumosudil metabolites following a single oral dose of belumosudil in participants with mild, moderate, or severe hepatic impairment compared to healthy participants with normal hepatic function.\nApproximately 38 participants were to be enrolled into the following groups based on their hepatic function, as determined according to the Child-Pugh system. • Group 1 (n=approximately 16): matched healthy participants with normal hepatic function • Group 2 (n=8): participants with mild hepatic impairment (Child-Pugh Class A [score of 5 or 6]) • Group 3 (n=8): participants with moderate hepatic impairment (Child-Pugh Class B [score of 7 to 9]) • Group 4 (n=6): participants with severe hepatic impairment (Child-Pugh Class C [score of 10 to 14]).\nHealthy participants with normal hepatic function (Group 1) were demographically matched by age (±10 years), sex, and body mass index (BMI; +20%) to participants with hepatic impairment (Groups 2, 3, and 4). Participants with normal hepatic function could be matched to multiple participants across the 3 hepatic impairment groups (mild, moderate, and severe), but could not be matched to more than 1 participant within the same impairment group.\nPharmacokinetic blood samples were obtained from predose until 48 hours postdose (Day 3).\nSummary tables, mean (+standard deviation [SD]) figures, overlaying individual figures, and individual figures by hepatic function and time postdose were provided for plasma PK concentrations. Summary tables by hepatic function were provided for all PK parameters, with the exception of terminal phase regression-related diagnostic parameters (λz, λz upper, λ z lower, λz number of points, R2-adj, and % AUCextrap), which were listed only.\nAll other PK parameters were regarded as secondary and were not participant to inferential statistical analysis."}, "[4]": {"conditions": "cited from earlier work", "remark": "listed apart in the source"}}, "note": "Counter-ions that a name gives are not always drawn."}
{"smiles": "CO[C@H]1/C=C/O[C@@]2(C)Oc3c(C)c(O)c4c(O)c(c5c(nc6cc(C)ccn65)c4c3C2=O)NC(=O)/C(C)=C\\C=C\\[C@H](C)[C@H](O)[C@@H](C)[C@@H](O)[C@@H](C)[C@H](OC(C)=O)[C@@H]1C", "note": "[rifaximin]", "values": [{"measurement": "drug-drug interaction (DDI) effects", "setting": "[1]", "result": "not shown to have drug-drug interaction (DDI) effects"}, {"measurement": "CYP3A4 induction", "setting": "CYP3A4", "result": "CYP3A4 inducer at high concentrations"}]}
{"smiles": "CC(C)NC(=O)COc1cccc(-c2nc(Nc3ccc4[nH]ncc4c3)c3ccccc3n2)c1", "note": "[belumosudil mesylate, 2-{3-[4-(1H-indazol-5-ylamino)-2-quinazolinyl]phenoxy}-N-(propan-2-yl) acetamide methanesulfonate (1:1)]", "values": [{"measurement": "solubility in DMF", "setting": "[2]; DMF", "result": "slightly soluble"}, {"measurement": "solubility in DMSO", "setting": "[2]; DMSO", "result": "soluble"}, {"measurement": "solubility in methanol", "setting": "[2]; methanol", "result": "slightly soluble"}, {"measurement": "solubility in water", "setting": "[2]; water", "result": "practically insoluble"}]}
{"smiles": "O=C(O)COc1cccc(-c2nc(Nc3ccc4[nH]ncc4c3)c3ccccc3n2)c1", "note": "[KD025m2]", "values": [{"measurement": "MRAUC (metabolite/parent ratio based on AUC)", "setting": "[3]; mild hepatic impairment", "result": "0.135 (73.8%)"}, {"measurement": "MRAUC (metabolite/parent ratio based on AUC)", "setting": "[3]; mild hepatic impairment, listed as KD025 m2", "result": "0.135 (73.8) [8]"}, {"measurement": "MRAUC (metabolite/parent ratio based on AUC)", "setting": "[3]; moderate hepatic impairment", "result": "0.318 (70.5%)"}, {"measurement": "MRAUC (metabolite/parent ratio based on AUC)", "setting": "[3]; moderate hepatic impairment, listed as KD025 m2", "result": "0.318 (70.5) [7]"}, {"measurement": "MRAUC (metabolite/parent ratio based on AUC)", "setting": "[3]; normal hepatic function", "result": "0.103 (68.8%)"}, {"measurement": "MRAUC (metabolite/parent ratio based on AUC)", "setting": "[3]; normal hepatic function, listed as KD025 m2", "result": "0.103 (68.8) [14]"}, {"measurement": "tlast", "setting": "[3]; mild hepatic impairment", "result": 23.9, "unit": "h"}, {"measurement": "tlast", "setting": "[3]; moderate hepatic impairment", "result": 48.0, "unit": "h"}, {"measurement": "tlast", "setting": "[3]; normal hepatic function", "result": 14.0, "unit": "h"}, {"measurement": "tlast", "setting": "[3]; severe hepatic impairment", "result": 48.0, "unit": "h"}, {"measurement": "MRAUC (metabolite/parent ratio based on AUC)", "setting": "[3]; severe hepatic impairment", "result": "0.680 (63.5%)"}, {"measurement": "MRAUC (metabolite/parent ratio based on AUC)", "setting": "[3]; severe hepatic impairment, listed as KD025 m2", "result": "0.680 (63.5) [4]"}]}
{"smiles": "C=CC(=O)N1CCC[C@@H](n2nc(-c3ccc(Oc4ccccc4)cc3)c3c(N)ncnc32)C1", "note": "[ibrutinib]", "values": [{"measurement": "overall response rate (ORR)", "setting": "[4]; cGVHD patients with >25% body surface area erythematous rash or NIH mouth score >4", "result": 67, "unit": "%"}, {"measurement": "discontinuation rate because of TEAEs", "setting": "[4]; cGVHD patients", "result": 43, "unit": "%"}]}
